From PubChem BioAssay AID1996
Values after ≈ are worked out from the molar mass of the structure shown.

Settings: buffer; pH 7.4; 200.0 µM

| SMILES | solubility kinetic |
| --- | --- |
| COc1cc(C(=O)OCC(=O)NC2CC2)ccc1OCCC(C)C | 6.8 µg/mL (≈ 20.3 µM) |
| CC(=O)c1sc(-c2ccc(F)cc2)cc1NS(=O)(=O)c1ccccc1 | 0.9 µg/mL (≈ 2.4 µM) |
| CCc1ccccc1NC(=S)N(CCN(C)C)C(C)c1cccnc1 (stereo not drawn) | 50.9 µg/mL (≈ 143 µM) |
| NC1=NC(=Nc2ccc(S(N)(=O)=O)cc2)c2ccccc21 | > 45.1 µg/mL |
| O=C(/C=C/c1ccc([N+](=O)[O-])cc1)OCC(=O)N1CCOCC1 | 10.1 µg/mL (≈ 31.5 µM) |
| COc1cc(CNC(=O)C2CC2)ccc1OCc1ccccc1 | 8.4 µg/mL (≈ 27 µM) |
| O=C(NCCCn1ccnc1)/C(=C/c1ccco1)NC(=O)c1cccs1 | 50.1 µg/mL (≈ 135 µM) |
| Cc1cc(NC(=O)Nc2c[nH]c(=O)[nH]c2=O)ccc1Br | 1.8 µg/mL (≈ 5.31 µM) |
| Oc1ccc(-c2nccc(-c3ccc(F)cc3)n2)cc1 | 2.1 µg/mL (≈ 7.89 µM) |
| Cc1cc(C)cc(NC(=O)COC(=O)COc2ccc(N(C)S(=O)(=O)c3cccs3)cc2)c1 | 9.1 µg/mL (≈ 18.6 µM) |
| O=[N+]([O-])c1ccc(S(=O)(=O)Nc2nc(-c3ccccc3)cs2)cc1 | > 54.2 µg/mL |
| Cn1c(O)c(C=NCCN2CCOCC2)c(=O)n(C)c1=S | > 46.9 µg/mL |
| NC(=O)c1ccsc1NC(=O)COC(=O)CNC(=O)c1ccc(Cl)cc1 | 3.4 µg/mL (≈ 8.59 µM) |
| O=c1[nH]c(-c2cccnc2)nc2sc(-c3ccccc3)cc12 | 0.2 µg/mL (≈ 0.655 µM) |
| COCCNc1nc2nonc2nc1N1C[C@H]2CC[C@H]1C2 | > 43.5 µg/mL |
| COCCCNC(=S)N(Cc1ccccc1)Cc1ccc(F)cc1 | 22.1 µg/mL (≈ 63.8 µM) |
| CC(N)Cc1c[nH]c2c1ccc1ccccc12.Cl (stereo not drawn) | 33.9 µg/mL |
| O=C(/C=C/c1ccccc1)OCC(=O)c1c[nH]c2ccccc12 | 3.9 µg/mL (≈ 12.8 µM) |
| Cc1cc(NC(=O)C2CC(=O)N(c3ccccc3Cl)C2)no1 (stereo not drawn) | > 48 µg/mL |
| Nc1ccc(C(=O)NC23CC4CC(CC(C4)C2)C3)cc1 | 37.3 µg/mL (≈ 138 µM) |
| CCC(C)Nc1nc(N)c([N+](=O)[O-])c(Nc2cc(OC)ccc2OC)n1 (stereo not drawn) | 1.2 µg/mL (≈ 3.31 µM) |
| CC1=CCC(C(=O)O)C(C(=O)Nc2cccnc2)C1 (stereo not drawn) | 33.3 µg/mL (≈ 128 µM) |
| Cc1ccc2c(c1)sc1ncc(NC(=O)c3ccc(F)cc3)c(=O)n12 | < 0.3 µg/mL |
| COc1ccc(N2CCN(S(=O)(=O)c3cnc[nH]3)CC2)cc1 | 3 µg/mL (≈ 9.31 µM) |

| SMILES | solubility kinetic |
| --- | --- |
| Cc1cc(OCC(=O)NC2CC2)c2c(C)cc(=O)oc2c1 | > 43.1 µg/mL |
| COC(=O)C(C(C)C)N1CCc2c(C)nc3c(C#N)cnn3c21 (stereo not drawn) | > 47 µg/mL |
| Cc1cc(=O)c(C(=O)O)nn1-c1ccccc1Cl | > 39.7 µg/mL |
| Cc1cc(NC(=O)CSc2nc3ccccc3cc2C#N)no1 | 2.9 µg/mL (≈ 8.94 µM) |
| Cc1cc(=O)[nH]c(SCC(=O)Nc2ccccc2[N+](=O)[O-])n1 | > 48 µg/mL |
| COc1ccccc1-c1cn(-c2ccccc2)c(=S)[nH]1 | 3.8 µg/mL (≈ 13.5 µM) |
| COc1ccc(S(=O)(=O)N2CCCC2c2cccs2)cc1 (stereo not drawn) | 27.4 µg/mL (≈ 84.7 µM) |
| CCCCCCCNC(=O)c1cc(-c2ccncc2)nc2ccccc12 | 0.8 µg/mL (≈ 2.3 µM) |
| NCCc1nc2ccccc2s1 | 23.2 µg/mL (≈ 130 µM) |
| O=C(CN1CCN(c2ccccc2F)CC1)NC(=O)NC1CCCCC1 | > 54.4 µg/mL |
| O=Cc1cn(CC(=O)Nc2ccc3c(c2)OCO3)c2ccccc12 | 0.4 µg/mL (≈ 1.24 µM) |
| Cc1cc(C(=O)CSc2nc(N)cc(=O)[nH]2)c(C)n1CC1CCCO1 (stereo not drawn) | > 54.4 µg/mL |
| COc1ccc(CNC(=O)COC(=O)[C@@H]2CCCN2C(=O)c2cccs2)cc1 | > 60.4 µg/mL |
| Cc1cc(NC(=O)Cc2ccccc2[N+](=O)[O-])no1 | 16.6 µg/mL (≈ 63.5 µM) |
| COc1ccccc1C1NC(=O)c2ccccc2O1 (stereo not drawn) | > 38.3 µg/mL |
| O=C(Nc1ncc(Cc2cccc([N+](=O)[O-])c2)s1)c1ccco1 | 0.7 µg/mL (≈ 2.13 µM) |
| Nc1nc2ccccc2n1Cc1ccc(Cl)c(Cl)c1 | 33.1 µg/mL (≈ 113 µM) |
| Cc1nc2ccccc2n1Cc1ccccc1Br | 26 µg/mL (≈ 86.3 µM) |
| CCc1nc2ccc(C(=O)N(C)CC(=O)Nc3ccccc3C(F)(F)F)cc2nc1CC | 27.6 µg/mL (≈ 62.1 µM) |
| O=C(NC1=NCCS1)c1ccccc1Cl | > 36.1 µg/mL |
| S=C(NCc1ccc(Cl)cc1)NN1CCOCC1 | > 42.9 µg/mL |
| NC(=O)c1ccc(Nc2ccc3nonc3c2[N+](=O)[O-])cc1 | 17.9 µg/mL (≈ 59.8 µM) |
| COC(=O)c1ccc(S(=O)(=O)c2ccc(Cl)cc2)c(N)c1 | 1.2 µg/mL (≈ 3.68 µM) |
| O=C(Nc1ccc(N2CCOCC2)cc1N1CCOCC1)c1ccccc1 | > 55.1 µg/mL |

| SMILES | solubility kinetic |
| --- | --- |
| O=C(CCSc1ccc(Cl)cc1)NCc1ccncc1 | > 46 µg/mL |
| Cc1ccc(-n2c(C)c(C)c3c(NCCO)ncnc32)cc1 | > 44.5 µg/mL |
| CC(=O)c1ccc(NC(=O)C[n+]2ccccc2)cc1.[Cl-] | > 43.6 µg/mL |
| O=C(Nc1ccnc(-c2cccnc2)n1)c1cccs1 | 2.9 µg/mL (≈ 10.3 µM) |
| CCSc1nc(NCCN(C)C)c2c3c(sc2n1)COC(C)(CC)C3 (stereo not drawn) | 46.4 µg/mL (≈ 122 µM) |
| CCc1ccc2[nH]c(C(=O)N(C)c3ccc(F)cc3F)cc2c1 | 1.7 µg/mL (≈ 5.41 µM) |
| CC(C)c1ccccc1NC(=S)NC(=O)C1CCCCC1 | 0.9 µg/mL (≈ 2.96 µM) |
| COc1cc([N+](=O)[O-])ccc1NC(=S)N1CCOCC1 | > 44.6 µg/mL |
| CN(C)c1c(F)cc(C(=O)NC(=O)NCc2cccnc2)cc1F | 4 µg/mL (≈ 12 µM) |
| CC(C)C(=O)NNC(=O)c1csc(-c2cccs2)n1 | > 44.3 µg/mL |
| O=C(N/C(=C/c1ccccc1Cl)C(=O)N1CCOCC1)c1ccccc1 | > 55.6 µg/mL |
| Cc1cc(C)c(OCC(=O)Nc2cc(C(=O)O)cc(C(=O)O)c2)cc1C | > 53.6 µg/mL |
| O=C(O)CCCCCNS(=O)(=O)c1ccc2c(c1)OCCO2 | > 49.4 µg/mL |
| Cc1ccc(SCC(=O)NCc2ccc(F)cc2)cc1 | 9.5 µg/mL (≈ 32.8 µM) |
| O=C(CNC(=O)Cc1cccc2ccccc12)NCc1ccccc1F | 36.5 µg/mL (≈ 104 µM) |
| Cc1cc(C)c2c(-c3ccc(F)cc3)c(C#N)c(=O)n(C)c2n1 | 0.6 µg/mL (≈ 1.95 µM) |
| Cc1c(C=N)c(O)n(C)c(=O)c1C#N | > 28.7 µg/mL |
| CNc1nc(-c2ccc(S(=O)(=O)N3CCCCC3)cc2)cs1 | 2.8 µg/mL (≈ 8.3 µM) |
| O=[N+]([O-])c1cncc([N+](=O)[O-])c1Nc1cccc(O)c1 | > 41.4 µg/mL |
| N/C(=N\OC(=O)CCCc1ccccc1)c1ccccc1Cl | 11.4 µg/mL (≈ 36 µM) |
| Cc1c(-c2ccc(Cl)cc2)[n+](=O)c(-c2ccccc2)cn1[O-] | > 46.9 µg/mL |
| CC(=O)OCCCN(C)CC/C=C1/c2ccccc2CSc2ccccc21.Cl | 53.8 µg/mL |
| COc1cccc2[nH]c(C(=O)NCCc3ccccc3)cc12 | 1 µg/mL (≈ 3.4 µM) |
| COc1ccc(C(=O)C2CCCN(C(=O)C3=CCCC3)C2)cc1OC (stereo not drawn) | > 51.5 µg/mL |

| SMILES | solubility kinetic |
| --- | --- |
| COc1ccc(OCCC(=O)OCC(=O)NCc2ccc(F)cc2)cc1 | 33.5 µg/mL (≈ 92.7 µM) |
| COc1ccccc1CC(=O)Nc1cc(C)ccn1 | > 38.4 µg/mL |
| O=C(c1ccc2ccccc2n1)N1CCN(S(=O)(=O)c2ccccc2)CC1 | > 57.2 µg/mL |
| CCOc1ccc(NCCC(O)c2ccc(F)cc2)cc1 (stereo not drawn) | 30.9 µg/mL (≈ 107 µM) |
| O=[N+]([O-])c1ccccc1S(=O)(=O)Nc1ncccn1 | > 42 µg/mL |
| COc1cccc(C(=O)NCCS(=O)(=O)N2CCCC2)c1 | > 46.9 µg/mL |
| O=C(CNC(=O)c1cccs1)NCC(=O)OCC(=O)c1ccccc1 | > 54.1 µg/mL |
| CSc1ccccc1C(=O)Nc1nc2ccccc2[nH]1 | 3.1 µg/mL (≈ 10.9 µM) |
| S=C(NCc1cccnc1)Nc1ccc2c(c1)OCO2 | > 43.1 µg/mL |
| Cc1cc(C)c2c(N)c(C(=O)Nc3ccccc3F)sc2n1 | 0.4 µg/mL (≈ 1.27 µM) |
| CCOC(=O)C1=C(O)C(=O)N(Cc2ccccc2)C1 | > 39.2 µg/mL |
| COC(=O)c1cccc2c1NC(=O)C2=O | > 30.8 µg/mL |
| CCn1c(O)c(C=NCCN2CCOCC2)c(=O)n(CC)c1=S | > 51.1 µg/mL |
| COc1ccc(Cl)cc1NC(=O)CSc1cccc[n+]1[O-] | > 48.7 µg/mL |
| COCc1nc2ccccc2n1Cc1ccccc1C | > 40 µg/mL |
| CCn1c(SCC(=O)NC2CC2)nnc1-c1ccccn1 | > 45.5 µg/mL |
| Cc1ccccc1N1C(=O)CC(c2c[nH]c3ccccc23)C1=O (stereo not drawn) | > 45.7 µg/mL |
| COc1ccc(C(=O)NC2CCN(C(=O)Nc3ccc(F)cc3)CC2)cc1 | 0.9 µg/mL (≈ 2.42 µM) |
| O=C(c1ccc2ncsc2c1)N1CCCC(C(F)(F)F)C1 (stereo not drawn) | > 47.1 µg/mL |
| Cc1cc(Cl)cc(C)c1OCCNCc1ccccc1.O=C(O)C(=O)O | 44.5 µg/mL |
| Cc1c(C(=O)C(=O)N2c3ccccc3CC2C)c2ccccc2n1C (stereo not drawn) | 1.6 µg/mL (≈ 4.81 µM) |
| Cc1[nH]c(=O)c(C#N)cc1-c1csc(-c2ccccc2)n1 | 0.7 µg/mL (≈ 2.39 µM) |
| O=C(Cc1ccccc1)c1ccccc1C(=O)N1CCCCC1 | > 46.1 µg/mL |
| COc1cc(OC)c(OC)cc1CN1CCSCC1 | 32.3 µg/mL (≈ 114 µM) |

| SMILES | solubility kinetic |
| --- | --- |
| CCOC(=O)C1CCN(C(=O)Nc2c(-c3ccccc3)noc2C)CC1 | 52.1 µg/mL (≈ 146 µM) |
| CCOc1cccc(C(=O)Nc2ccncc2)c1 | > 36.3 µg/mL |
| CC(=O)c1c(C)n(-c2ccc(C)cc2C)c2ccc(O)cc12 | < 0.6 µg/mL |
| Fc1ccc(NC2=NCCCCC2)cc1 | > 30.9 µg/mL |
| Cc1nc2ccc(Cl)cc2c(=O)n1-c1ccccc1Cl | 10.4 µg/mL (≈ 34.1 µM) |
| O=C1CN(CC(=O)NC2CCCc3ccccc32)CCN1 (stereo not drawn) | > 43.1 µg/mL |
| COc1ccc(OC)c2nc3c(cc12)CCC3 | 29 µg/mL (≈ 126 µM) |
| O=C(O)CCc1ccc(S(=O)(=O)Nc2ccccc2N2CCCCC2)cc1 | > 58.3 µg/mL |
| O=C(Nc1ccccc1Cl)c1cc(=O)c2ccccc2o1 | 0.7 µg/mL (≈ 2.34 µM) |
| COc1ccc2c(c1)CC(C(=O)Nc1ccc(Cl)cc1)/C(=N/O)O2 (stereo not drawn) | < 0.4 µg/mL |
| Cc1ccc(CNCc2cccnc2)s1.Cl | > 38.2 µg/mL |
| COc1ccc(NC(=O)c2ccccc2SC)c(OC)c1 | > 45.5 µg/mL |
| COc1ccc(OCC(O)CNS(=O)(=O)c2cccs2)cc1 (stereo not drawn) | > 51.5 µg/mL |
| Cc1ccc(C)c(NC(=O)CN(C)C(C)C(=O)N2CCCC2)c1 (stereo not drawn) | 42.1 µg/mL (≈ 133 µM) |
| COc1cccc(NC(=O)CSc2cccc[n+]2[O-])c1 | > 43.6 µg/mL |
| O=C(Nc1ccc(N2CCCC2)cc1)c1cccc(Cl)c1Cl | < 0.4 µg/mL |
| Cc1ccc(NC(=O)CCN2CCOCC2)cc1C | > 39.4 µg/mL |
| COC(=O)[C@H](CC(C)C)NC(=O)Nc1ccc(F)cc1 | > 42.3 µg/mL |
| CC1CCN(C(=O)COC(=O)CCc2c[nH]c3ccccc23)CC1 | 9 µg/mL (≈ 27.4 µM) |
| O=C(c1ccc([N+](=O)[O-])cc1)N1CCCC1 | > 33 µg/mL |
| CCCCS(=O)(=O)N1CCC(C(=O)Oc2ccc(Cl)cc2)CC1 | 1.7 µg/mL (≈ 4.72 µM) |
| CCOc1ccc(NC(=O)N[C@@H](Cc2ccccc2)C(=O)O)cc1 | > 49.3 µg/mL |
